# Data taken from patent US12269800B2, “Delivery of therapeutic alkaloid compounds” (priority 2021, dated 2025).
# Where two headings read alike, the source gives them in different places.
# What was measured:
# [1] = format: physicochemical; details: DI water, 25° C., 0.5 mM
# [2] = Hydrolysis Assay of Example A2, Condition 1 (SGF with pepsin, pH 1.5, 37° C.); format: physicochemical; details: SGF with pepsin pH 1.5, 37° C., 0.5 mM
# [3] = Plasma Stability Assay of Example A3, human plasma; details: % of prodrug compound remaining, 37° C.
# [4] = 5 µM
# [5] = Plasma Stability Assay of Example A3, mouse plasma; details: % of prodrug compound remaining, 37° C.
# [6] = 5 µM; remark: listed apart in the source
compound,measurement,setting,value
"COc1ccc([C@]23CCN(C)[C@H]2CC2(CC3)OCC(COc3ccccc3OC)O2)cc1OC (stereo partly drawn) [Compound 216, (3′aS,7′aS)-3′a-(3,4-dimethoxyphenyl)-4-[(2-methoxyphenoxy)methyl]-1′-methyl-spiro[1,3-dioxolane-2,6′-2,3,4,5,7,7a-hexahydroindole]]",Condition 2 Conversion (%),[1]; time 1 min,0%
same,Condition 2 Conversion (%),[1]; time 5 min,0%
same,Condition 2 Conversion (%),[1]; time 30 min,0%
same,Condition 2 Conversion (%),[1]; time 1 h,0%
same,Condition 2 Conversion (%),[1]; time 4 h,0%
same,Condition 2 Conversion (%),[1]; time 24 h,0%
same,Condition 1 Conversion (%),[2]; time 1 min,0%
same,Condition 1 Conversion (%),[2]; time 5 min,0%
same,Condition 1 Conversion (%),[2]; time 30 min,0%
same,Condition 1 Conversion (%),[2]; time 1 h,0%
same,Condition 1 Conversion (%),[2]; time 4 h,0%
same,Condition 1 Conversion (%),[2]; time 24 h,0%
"COc1ccc([C@@]23CCC(=NNC(=O)c4ccc(F)cc4)C[C@@H]2N(C)CC3)cc1OC [Compound 220, N-[[(3aS)-3a-(3,4-dimethoxyphenyl)-1-methyl-2,3,4,5,7,7a-hexahydroindol-6-ylidene]amino]-4-fluoro-benzamide]",Condition 2 Conversion (%),[1]; time 1 min,20.02%
same,Condition 2 Conversion (%),[1]; time 5 min,21.53%
same,Condition 2 Conversion (%),[1]; time 30 min,22.27%
same,Condition 2 Conversion (%),[1]; time 1 h,55.36%
same,Condition 2 Conversion (%),[1]; time 4 h,88.25%
same,Condition 2 Conversion (%),[1]; time 24 h,89.93%
"COc1ccc([C@@]23CCC(=NNC(=O)CCCC(=O)O)C[C@@H]2N(C)CC3)cc1OC [Compound 246, 5-(2-((3aS,7aS)-3a-(3,4-dimethoxyphenyl)-1-methyloctahydro-6H-indol-6-ylidene)hydrazineyl)-5-oxopentanoic acid]",Condition 2 Conversion (%),[1]; time 1 min,40%
same,Condition 2 Conversion (%),[1]; time 5 min,50%
same,Condition 2 Conversion (%),[1]; time 30 min,60%
same,Condition 2 Conversion (%),[1]; time 1 h,75%
same,Condition 2 Conversion (%),[1]; time 4 h,100%
same,Condition 2 Conversion (%),[1]; time 24 h,100%
same,Condition 1 Conversion (%),[2]; time 1 min,100%
same,Condition 1 Conversion (%),[2]; time 5 min,100%
same,Condition 1 Conversion (%),[2]; time 30 min,100%
same,Condition 1 Conversion (%),[2]; time 1 h,100%
same,Condition 1 Conversion (%),[2]; time 4 h,100%
same,Condition 1 Conversion (%),[2]; time 24 h,100%
"CCCCC(=O)OC1=C[C@@H]2N(C)CC[C@]2(c2ccc(OC)c(OC)c2)CC1 [Compound 268, N-[[(3aS,7aS)-3a-(3,4-dimethoxyphenyl)-1-methyl-3,4,5,7a-tetrahydro-2H-indol-6-yl] pentanoate]",Condition 2 Conversion (%),[1]; time 1 min,0%
same,Condition 2 Conversion (%),[1]; time 5 min,0%
same,Condition 2 Conversion (%),[1]; time 30 min,0%
same,Condition 2 Conversion (%),[1]; time 1 h,0%
same,Condition 2 Conversion (%),[1]; time 4 h,0%
same,Condition 2 Conversion (%),[1]; time 24 h,0%
same,Condition 1 Conversion (%),[2]; time 1 min,0%
same,Condition 1 Conversion (%),[2]; time 5 min,0%
same,Condition 1 Conversion (%),[2]; time 30 min,0%
same,Condition 1 Conversion (%),[2]; time 1 h,0%
same,Condition 1 Conversion (%),[2]; time 4 h,0%
same,Condition 1 Conversion (%),[2]; time 24 h,0%
"COc1ccc([C@@]23CC/C(=N/NC(=O)Nc4ccccc4Cl)C[C@@H]2N(C)CC3)cc1OC [Compound 270, 1-[(Z)—[(3aS,7aS)-3a-(3,4-dimethoxyphenyl)-1-methyl-2,3,4,5,7,7a-hexahydroindol-6-ylidene]amino]-3-(2-chlorophenyl)urea]",Condition 2 Conversion (%),[1]; time 4 h,1%
same,Condition 2 Conversion (%),[1]; time 24 h,1%
same,Condition 1 Conversion (%),[2]; time 4 h,1%
same,Condition 1 Conversion (%),[2]; time 24 h,1%
"COc1ccc([C@]23CCN(C)[C@H]2CC2(CC3)OCC(C34CC5CC(CC(C5)C3)C4)O2)cc1OC (stereo partly drawn) [Compound 281, (3′aS,7′aS)-4-(1-adamantyl)-3′a-(3,4-dimethoxyphenyl)-1′-methyl-spiro[1,3-dioxolane-2,6′-2,3,4,5,7,7a-hexahydroindole]]",Condition 2 Conversion (%),[1]; time 1 min,0%
same,Condition 2 Conversion (%),[1]; time 5 min,0%
same,Condition 2 Conversion (%),[1]; time 30 min,0%
same,Condition 2 Conversion (%),[1]; time 1 h,0%
same,Condition 2 Conversion (%),[1]; time 4 h,0%
same,Condition 2 Conversion (%),[1]; time 24 h,0%
same,Condition 1 Conversion (%),[2]; time 1 min,0%
same,Condition 1 Conversion (%),[2]; time 5 min,0%
same,Condition 1 Conversion (%),[2]; time 30 min,0%
same,Condition 1 Conversion (%),[2]; time 1 h,0%
same,Condition 1 Conversion (%),[2]; time 4 h,0%
same,Condition 1 Conversion (%),[2]; time 24 h,0%
"COc1ccc([C@]23CCN(C)[C@H]2CC2(CC3)Oc3ccccc3O2)cc1OC [Compound 300, (3′aS,7′aS)-3′a-(3,4-dimethoxyphenyl)-1′-methyl-spiro[1,3-benzodioxole-2,6′-2,3,4,5,7,7a-hexahydroindole]]",Condition 2 Conversion (%),[1]; time 1 min,0%
same,Condition 2 Conversion (%),[1]; time 5 min,0%
same,Condition 2 Conversion (%),[1]; time 30 min,0%
same,Condition 2 Conversion (%),[1]; time 1 h,0%
same,Condition 2 Conversion (%),[1]; time 4 h,0%
same,Condition 2 Conversion (%),[1]; time 24 h,0%
same,Condition 1 Conversion (%),[2]; time 1 min,0%
same,Condition 1 Conversion (%),[2]; time 5 min,0%
same,Condition 1 Conversion (%),[2]; time 30 min,0%
same,Condition 1 Conversion (%),[2]; time 1 h,0%
same,Condition 1 Conversion (%),[2]; time 4 h,0%
same,Condition 1 Conversion (%),[2]; time 24 h,0%
"COc1ccc([C@@]23CCC(OC(=O)c4ccc(C(C)C)cc4)=C[C@@H]2N(C)CC3)cc1OC [Compound 371, (3aS,7aS)-3a-(3,4-dimethoxyphenyl)-1-methyl-2,3,3a,4,5,7a-hexahydro-1H-indol-6-yl 4-isopropylbenzoate]",Human Plasma Prodrug (%),[3]; 0.0 min,100%
same,Human Plasma Prodrug (%),[3]; 15 min,99%
same,Human Plasma Prodrug (%),[3]; 30 min,92%
same,Human Plasma Prodrug (%),[3]; 60 min,87%
same,Human Plasma Prodrug (%),[3]; 120 min,78%
same,Human Plasma Prodrug (%),[3]; 240 min,27%
same,Human Plasma Prodrug (%),[4]; 0 min,100.0%
same,Human Plasma Prodrug (%),[4]; 10 min,>99%
same,Human Plasma Prodrug (%),[4]; 30 min,94.4%
same,Human Plasma Prodrug (%),[4]; 60 min,90.7%
same,Human Plasma Prodrug (%),[4]; 120 min,91.3%
same,Human Plasma Prodrug (%),[4]; 240 min,78.0%
same,Mouse Plasma Prodrug (%),[5]; 0.0 min,100%
same,Mouse Plasma Prodrug (%),[5]; 15 min,10%
same,Mouse Plasma Prodrug (%),[5]; 30 min,0%
same,Mouse Plasma Prodrug (%),[5]; 60 min,0%
same,Mouse Plasma Prodrug (%),[5]; 120 min,0%
same,Mouse Plasma Prodrug (%),[5]; 240 min,0%
same,Rat Plasma Prodrug (%),[6]; 0 min,100.0%
same,Rat Plasma Prodrug (%),[6]; 10 min,5.0%
same,Rat Plasma Prodrug (%),[6]; 30 min,0.2%
same,Rat Plasma Prodrug (%),[6]; 60 min,0.1%
same,Rat Plasma Prodrug (%),[6]; 120 min,0.0%
same,Rat Plasma Prodrug (%),[6]; 240 min,0.0%
"COc1ccc([C@@]23CCC(OC(=O)c4c(C)cccc4C)=C[C@@H]2N(C)CC3)cc1OC [Compound 372, (3aS,7aS)-3a-(3,4-dimethoxyphenyl)-1-methyl-2,3,3a,4,5,7a-hexahydro-1H-indol-6-yl 2,6-dimethylbenzoate]",Human Plasma Prodrug (%),[3]; 0.0 min,100%
same,Human Plasma Prodrug (%),[3]; 15 min,97%
same,Human Plasma Prodrug (%),[3]; 30 min,99%
same,Human Plasma Prodrug (%),[3]; 60 min,94%
same,Human Plasma Prodrug (%),[3]; 120 min,81%
same,Human Plasma Prodrug (%),[3]; 240 min,38%
same,Human Plasma Prodrug (%),[4]; 0 min,100.0%
same,Human Plasma Prodrug (%),[4]; 10 min,>99%
same,Human Plasma Prodrug (%),[4]; 30 min,>99%
same,Human Plasma Prodrug (%),[4]; 60 min,>99%
same,Human Plasma Prodrug (%),[4]; 120 min,>99%
same,Human Plasma Prodrug (%),[4]; 240 min,>99%
same,Mouse Plasma Prodrug (%),[5]; 0.0 min,100%
same,Mouse Plasma Prodrug (%),[5]; 15 min,92%
same,Mouse Plasma Prodrug (%),[5]; 30 min,91%
same,Mouse Plasma Prodrug (%),[5]; 60 min,88%
same,Mouse Plasma Prodrug (%),[5]; 120 min,73%
same,Mouse Plasma Prodrug (%),[5]; 240 min,64%
same,Rat Plasma Prodrug (%),[6]; 0 min,100.0%
same,Rat Plasma Prodrug (%),[6]; 10 min,>99%
same,Rat Plasma Prodrug (%),[6]; 30 min,>99%
same,Rat Plasma Prodrug (%),[6]; 60 min,>99%
same,Rat Plasma Prodrug (%),[6]; 120 min,98.4%
same,Rat Plasma Prodrug (%),[6]; 240 min,>99%
"COc1ccc([C@@]23CCC(OC(=O)c4cccc(C)c4C)=C[C@@H]2N(C)CC3)cc1OC [Compound 373, (3aS,7aS)-3a-(3,4-dimethoxyphenyl)-1-methyl-2,3,3a,4,5,7a-hexahydro-1H-indol-6-yl 2,3-dimethylbenzoate]",Human Plasma Prodrug (%),[3]; 0.0 min,100%
same,Human Plasma Prodrug (%),[4]; 0 min,100.0%
same,Human Plasma Prodrug (%),[4]; 10 min,96.3%
same,Human Plasma Prodrug (%),[4]; 30 min,>99%
same,Human Plasma Prodrug (%),[4]; 60 min,94.8%
same,Human Plasma Prodrug (%),[4]; 120 min,89.9%
same,Human Plasma Prodrug (%),[4]; 240 min,96.3%
same,Mouse Plasma Prodrug (%),[5]; 0.0 min,100%
same,Mouse Plasma Prodrug (%),[5]; 15 min,82%
same,Mouse Plasma Prodrug (%),[5]; 30 min,64%
same,Mouse Plasma Prodrug (%),[5]; 60 min,41%
same,Mouse Plasma Prodrug (%),[5]; 120 min,12%
same,Mouse Plasma Prodrug (%),[5]; 240 min,1%
same,Rat Plasma Prodrug (%),[6]; 0 min,100.0%
same,Rat Plasma Prodrug (%),[6]; 10 min,81.0%
same,Rat Plasma Prodrug (%),[6]; 30 min,58.4%
same,Rat Plasma Prodrug (%),[6]; 60 min,26.8%
same,Rat Plasma Prodrug (%),[6]; 120 min,5.2%
same,Rat Plasma Prodrug (%),[6]; 240 min,1.3%
"COc1ccc([C@@]23CCC(OC(=O)c4cccc(C)c4)=C[C@@H]2N(C)CC3)cc1OC [Compound 374, (3aS,7aS)-3a-(3,4-dimethoxyphenyl)-1-methyl-2,3,3a,4,5,7a-hexahydro-1H-indol-6-yl 3-methylbenzoate]",Human Plasma Prodrug (%),[3]; 0.0 min,100%
same,Human Plasma Prodrug (%),[3]; 15 min,98%
same,Human Plasma Prodrug (%),[3]; 30 min,88%
same,Human Plasma Prodrug (%),[3]; 60 min,84%
same,Human Plasma Prodrug (%),[3]; 120 min,62%
same,Human Plasma Prodrug (%),[3]; 240 min,11%
same,Human Plasma Prodrug (%),[4]; 0 min,100.0%
same,Human Plasma Prodrug (%),[4]; 10 min,>99%
same,Human Plasma Prodrug (%),[4]; 30 min,>99%
same,Human Plasma Prodrug (%),[4]; 60 min,>99%
same,Human Plasma Prodrug (%),[4]; 120 min,>99%
same,Human Plasma Prodrug (%),[4]; 240 min,95.4%
same,Mouse Plasma Prodrug (%),[5]; 0.0 min,100%
same,Mouse Plasma Prodrug (%),[5]; 15 min,33%
same,Mouse Plasma Prodrug (%),[5]; 30 min,4%
same,Mouse Plasma Prodrug (%),[5]; 60 min,0%
same,Mouse Plasma Prodrug (%),[5]; 120 min,0%
same,Mouse Plasma Prodrug (%),[5]; 240 min,0%
same,Rat Plasma Prodrug (%),[6]; 0 min,100.0%
same,Rat Plasma Prodrug (%),[6]; 10 min,9.7%
same,Rat Plasma Prodrug (%),[6]; 30 min,0.3%
same,Rat Plasma Prodrug (%),[6]; 60 min,0.1%
same,Rat Plasma Prodrug (%),[6]; 120 min,0.0%
same,Rat Plasma Prodrug (%),[6]; 240 min,0.0%
